From a compilation of properties of binary mixtures (doi:10.7498/aps.66.196101)

Assay: xn = mol fraction of the nth substance listed
Conditions: 100 kPa

CCCCC[n+]1ccccc1.N#C[N-]C#N + O
Conditions | electrical conductivity, x1 = 0.9199 [S/m] | electrical conductivity, x1 = 0.9356 [S/m] | electrical conductivity, x1 = 0.9518 [S/m] | electrical conductivity, x1 = 0.9685 [S/m] | electrical conductivity, x2 = 0.0142 [S/m] | viscosity, x1 = 0.9199 [mPa·s] | viscosity, x1 = 0.9345 [mPa·s] | viscosity, x1 = 0.9518 [mPa·s] | viscosity, x1 = 0.9674 [mPa·s] | viscosity, x2 = 0.0154 [mPa·s]
298.15 K | 0.687 | – | 0.648 | 0.63 | 0.611 | 41 | 42.1 | 43.4 | 44.7 | 45.9
303.15 K | 0.865 | – | 0.798 | 0.761 | 0.719 | 33.3 | 34.1 | 35.1 | 36 | 37
308.15 K | 1.08 | 1.03 | – | 0.926 | 0.873 | 27.4 | 28.1 | – | – | 30.4
313.15 K | – | 1.19 | 1.13 | 1.09 | 1.03 | – | 23.49 | 24.01 | 24.6 | 25.4
318.15 K | 1.42 | 1.39 | 1.33 | – | – | 19.45 | 19.85 | 20.32 | 20.87 | 21.39
323.15 K | – | 1.6 | 1.55 | – | 1.43 | – | – | 16.27 | – | –
328.15 K | 1.86 | – | 1.76 | 1.7 | – | 13.96 | – | 14.48 | 14.81 | –
333.15 K | 2.08 | 2.03 | 1.97 | 1.92 | 1.88 | 12.2 | 12.43 | 12.69 | 12.99 | 13.26
338.15 K | 2.34 | 2.29 | – | 2.17 | 2.12 | 10.78 | 10.9 | – | 11.32 | 11.64

CCC[n+]1ccccc1.N#C[N-]C#N + O
Conditions | electrical conductivity, x1 = 0.9305 [S/m] | electrical conductivity, x1 = 0.9444 [S/m] | electrical conductivity, x1 = 0.9588 [S/m] | electrical conductivity, x1 = 0.9735 [S/m] | electrical conductivity, x2 = 0.0114 [S/m] | viscosity, x1 = 0.9277 [mPa·s] | viscosity, x1 = 0.9416 [mPa·s] | viscosity, x1 = 0.9559 [mPa·s] | viscosity, x1 = 0.9705 [mPa·s] | viscosity, x2 = 0.0144 [mPa·s]
298.15 K | – | 1.44 | 1.41 | 1.37 | 1.34 | 20.93 | 21.6 | – | – | 24.55
303.15 K | – | – | 1.61 | – | 1.53 | 17.56 | 18.05 | 18.78 | 19.65 | 20.53
308.15 K | 2.03 | 1.97 | 1.91 | 1.86 | 1.81 | 15.11 | 15.43 | 15.97 | 16.69 | 17.49
313.15 K | 2.35 | 2.3 | 2.23 | 2.17 | – | – | 13.31 | – | 14.28 | 14.87
318.15 K | 2.64 | – | 2.57 | 2.52 | 2.47 | 11.38 | 11.63 | 11.99 | – | 12.93
323.15 K | 2.98 | – | 2.92 | – | 2.84 | – | 9.95 | 10.29 | 10.68 | 11.07
328.15 K | 3.42 | 3.38 | 3.33 | 3.29 | 3.25 | 8.53 | – | – | 9.21 | 9.66
333.15 K | 3.88 | – | 3.77 | – | 3.68 | 7.65 | 7.77 | 7.97 | 8.23 | 8.57
338.15 K | 4.31 | 4.27 | – | 4.17 | 4.11 | 6.91 | 7.01 | – | 7.41 | 7.68

CC[n+]1ccccc1.N#C[N-]C#N + O
Conditions | electrical conductivity, x1 = 0.9285 [S/m] | electrical conductivity, x1 = 0.9414 [S/m] | electrical conductivity, x1 = 0.9545 [S/m] | electrical conductivity, x1 = 0.9681 [S/m] | electrical conductivity, x2 = 0.0181 [S/m] | viscosity, x1 = 0.9353 [mPa·s] | viscosity, x1 = 0.9484 [mPa·s] | viscosity, x1 = 0.9617 [mPa·s] | viscosity, x1 = 0.9754 [mPa·s] | viscosity, x2 = 0.0105 [mPa·s]
298.15 K | 2.27 | – | 2.06 | – | 1.86 | 14.98 | 15.27 | 15.62 | 16.02 | –
303.15 K | 2.46 | 2.37 | – | 2.18 | 2.08 | 12.98 | 13.23 | 13.58 | – | 14.38
308.15 K | 2.75 | 2.66 | – | 2.48 | 2.39 | 11.41 | 11.59 | 11.87 | 12.17 | –
313.15 K | 3.05 | 2.98 | 2.9 | – | 2.74 | – | 10.26 | – | 10.73 | –
318.15 K | 3.39 | 3.33 | – | 3.18 | 3.1 | 8.95 | 9.11 | 9.32 | 9.52 | 9.75
323.15 K | 3.85 | 3.78 | 3.7 | 3.61 | 3.54 | 7.77 | 7.9 | 8.08 | – | 8.44
328.15 K | 4.34 | 4.26 | 4.18 | 4.08 | 4.01 | 7.01 | 7.13 | 7.28 | – | 7.61
333.15 K | – | – | 4.7 | – | 4.48 | 6.35 | 6.45 | 6.58 | 6.73 | 6.88
338.15 K | 5.47 | 5.34 | 5.24 | 5.11 | 5.01 | – | – | 5.98 | – | 6.22

CCn1cc[n+](C)c1.N[C@@H](CO)C(=O)[O-] + O
electrical conductivity [S/m]
Conditions | 303.15 K | 308.15 K | 313.15 K | 318.15 K | 323.15 K | 328.15 K | 333.15 K | 338.15 K
x1 = 0.8695 | 0.102 | 0.14 | 0.176 | – | 0.276 | 0.348 | – | 0.526
x1 = 0.8836 | 0.1 | 0.138 | 0.174 | – | 0.273 | – | – | 0.522
x1 = 0.8982 | 0.0982 | 0.135 | 0.172 | 0.218 | 0.271 | 0.343 | 0.429 | 0.518
x1 = 0.9131 | 0.0964 | – | – | 0.216 | – | 0.341 | 0.426 | 0.515
x1 = 0.9275 | – | 0.13 | – | 0.213 | 0.266 | 0.338 | 0.423 | –
